Data published in patent US8415351B2 (priority 2007, dated 2013).

What was measured:
[1] = biological target: T1, HCV polymerase 1A (Δ21 NS5B, H77) (Hepatitis C virus genotype 1a, UniProt P27958); assay: biochemical; conditions: IC50 1a
T1 construct: 20 to 50 nM Δ21 NS5B
Experimental: HCV Polymerase Inhibition Assay
The reaction was initiated by the addition of 20 μM CTP, 20 μM ATP, 1 μM ^3H-UTP (10 mCi/umol), 5 nM template RNA and 0.1 U/μl RNase inhibitor (RNasin, Promega), and allowed to proceed for 2 to 4 h at room temperature. Reaction volume was 50 μl. The reaction was terminated by the addition of 1 volume of 4 mM spermine in 10 mM Tris-Cl pH 8.0, 1 mM EDTA. After incubation for at least 15 min at room temperature, the precipitated RNA was captured by filtering through a GF/B filter (Millipore) in a 96 well format. The filter plate was washed three times with 200 μl each of 2 mM spermine, 10 mM Tris-Cl pH 8.0, 1 mM EDTA, and 2 times with ethanol. After air-drying, 30 μl of Microscint 20 scintillation cocktail (Packard) was added to each well, and the retained cpm were determined by scintillation counting. […] Retained cpm were plotted vs. inhibitor concentration and fit to equation 1 using non-linear regression (ref. 1) to obtain the IC50 values: Retained cpm=A[sqrt{(IC50+It−Et)^2+4*IC50*Et}−(IC50+It−Et)]
Ref. Morrison, J. F. and S. R. Stone. […] Approaches to the study and analysis of the inhibition of enzymes by slow- and tight-binding inhibitors. Comments Mol. Cell. Biophys.
The sequence of the template RNA used was: 5′-[…]

[2] = test system: genotype 1a-H77 subgenomic replicon cell line; assay: microbe, parasite or virus in culture; format: cell-based, HCV; conditions: Hepatitis C virus, read-out: EC50 1a
[3] = test system: genotype 1b-Con1 subgenomic replicon cell line; assay: microbe, parasite or virus in culture; format: cell-based, HCV; conditions: Hepatitis C virus, read-out: EC50 1b

T1 sequence (P27958 2421-2990, stated change not applied): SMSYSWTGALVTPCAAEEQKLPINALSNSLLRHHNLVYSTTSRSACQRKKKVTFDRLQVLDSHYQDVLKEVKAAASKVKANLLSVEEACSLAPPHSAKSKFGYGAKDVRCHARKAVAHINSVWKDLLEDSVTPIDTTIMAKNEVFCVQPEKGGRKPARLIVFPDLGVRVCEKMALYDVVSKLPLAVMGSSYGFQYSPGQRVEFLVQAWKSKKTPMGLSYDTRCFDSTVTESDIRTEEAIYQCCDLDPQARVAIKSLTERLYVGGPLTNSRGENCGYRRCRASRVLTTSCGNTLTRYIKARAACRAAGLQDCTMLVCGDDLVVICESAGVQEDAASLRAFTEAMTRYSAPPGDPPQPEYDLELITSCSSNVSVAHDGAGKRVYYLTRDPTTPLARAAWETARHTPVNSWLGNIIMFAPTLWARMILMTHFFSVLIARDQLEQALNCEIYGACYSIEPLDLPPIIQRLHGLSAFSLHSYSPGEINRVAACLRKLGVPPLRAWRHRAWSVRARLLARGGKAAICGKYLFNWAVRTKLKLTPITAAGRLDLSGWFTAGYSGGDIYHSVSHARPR

With `CC(C)(C)c1cc(N2CCC(=O)NC2=O)cc(C(=O)Nc2ccc(OCC#N)cc2)c1O` [IA-L3-1.17, 3-tert-butyl-N-(4-(cyanomethoxy)phenyl)-5-(2,4-dioxotetrahydropyrimidin-1(2H)-yl)-2-hydroxybenzamide] the IC50 [1] was > 1000 nM, the EC50 [2] was > 1000 nM and the EC50 [3] was > 1000 nM.
`CC(C)(C)c1cc(N2CCC(=O)NC2=O)cc(C(=O)Nc2ccc(OCC(N)=O)cc2)c1O` [IA-L3-1.18, N-(4-(2-amino-2-oxoethoxy)phenyl)-3-tert-butyl-5-(2,4-dioxotetrahydropyrimidin-1(2H)-yl)-2-hydroxybenzamide] was tested, and the IC50 [1] was > 1000 nM, the EC50 [2] was > 1000 nM and the EC50 [3] was 100 to 1000 nM.
In the case of `CCOc1c(/C=C/c2ccc(NS(C)(=O)=O)cc2)cc(-n2ccc(=O)[nH]c2=O)cc1C(C)(C)C` [IB-L1-1.30, (E)-N-(4-(3-tert-butyl-5-(2,4-dioxo-3,4-dihydropyrimidin-1(2H)-yl)-2-ethoxystyryl)phenyl)methanesulfonamide], the EC50 [2] is reported as 100 to 1000 nM and the EC50 [3] is reported as 10 to 100 nM.
In the case of `COc1c(/C=C/c2ccc(NS(C)(=O)=O)cc2CNCCC(C)C)cc(-n2ccc(=O)[nH]c2=O)cc1C(C)(C)C` [IB-L1-1.31, (E)-N-(4-(3-tert-butyl-5-(2,4-dioxo-3,4-dihydropyrimidin-1(2H)-yl)-2-methoxystyryl)-3-((isopentylamino)methyl)phenyl)methanesulfonamide], the EC50 [2] is reported as > 1000 nM and the EC50 [3] is reported as > 1000 nM.
`COc1c(/C=C/c2ccc(NS(C)(=O)=O)cc2NC(=O)OC(C)(C)C)cc(-n2ccc(=O)[nH]c2=O)cc1C(C)(C)C` [IB-L1-1.32, (E)-tert-butyl 2-(3-tert-butyl-5-(2,4-dioxo-3,4-dihydropyrimidin-1(2H)-yl)-2-methoxystyryl)-5-(methylsulfonamido)phenylcarbamate] was tested, and the EC50 [2] was 100 to 1000 nM and the EC50 [3] was 10 to 100 nM.
`COc1c(/C=C/c2ccc(NS(C)(=O)=O)cc2CN2CCCC2)cc(-n2ccc(=O)[nH]c2=O)cc1C(C)(C)C` [IB-L1-1.33, N-(4-{(E)-2-[3-tert-Butyl-5-(2,4-dioxo-3,4-dihydro-2H-pyrimidin-1-yl)-2-methoxy-phenyl]-vinyl}-3-pyrrolidin-1-ylmethyl-phenyl)-methanesulfonamide] gave an EC50 [2] of 100 to 1000 nM and an EC50 [3] of 10 to 100 nM.
For `COc1c(/C=C\c2ccc(NS(C)(=O)=O)cc2)cc(-n2ccc(=O)[nH]c2=O)cc1C(C)(C)C` [IB-L1-1.34, N-(4-{(Z)-2-[3-tert-Butyl-5-(2,4-dioxo-3,4-dihydro-2H-pyrimidin-1-yl)-2-methoxy-phenyl]-vinyl}-phenyl)-methanesulfonamide], the EC50 [2] was 10 to 100 nM and the EC50 [3] was < 10 nM.
`COc1c(/C=C/c2ccc(NS(C)(=O)=O)cc2)cc(-n2ccc(=O)[nH]c2=O)cc1C(C)(C)CO` [IB-L1-1.45, (E)-N-(4-(5-(2,4-dioxo-3,4-dihydropyrimidin-1(2H)-yl)-3-(1-hydroxy-2-methylpropan-2-yl)-2-methoxystyryl)phenyl)methanesulfonamide] was tested, and the EC50 [2] was 10 to 100 nM and the EC50 [3] was < 10 nM.
`COc1c(/C=C/c2ccc(NS(C)(=O)=O)cc2)cc(-n2ccc(=O)[nH]c2=O)cc1-c1ccco1` [IB-L1-1.46, (E)-N-(4-(5-(2,4-dioxo-3,4-dihydropyrimidin-1(2H)-yl)-3-(furan-2-yl)-2-methoxystyryl)phenyl)methanesulfonamide] was tested, and the EC50 [2] was 100 to 1000 nM and the EC50 [3] was < 10 nM.
With `COc1c(/C=C/c2ccc(NS(C)(=O)=O)cc2)cc(-n2ccc(=O)[nH]c2=O)cc1-c1ccsc1` [IB-L1-1.47, (E)-N-(4-(5-(2,4-dioxo-3,4-dihydropyrimidin-1(2H)-yl)-2-methoxy-3-(thiophen-3-yl)styryl)phenyl)methanesulfonamide] the EC50 [2] was 100 to 1000 nM and the EC50 [3] was 10 to 100 nM.
`COc1c(/C=C/c2ccc(NS(C)(=O)=O)cc2)cc(-n2ccc(=O)[nH]c2=O)cc1-c1cccs1` [IB-L1-1.48, (E)-N-(4-(5-(2,4-dioxo-3,4-dihydropyrimidin-1(2H)-yl)-2-methoxy-3-(thiophen-2-yl)styryl)phenyl)methanesulfonamide] was tested, and the EC50 [2] was 100 to 1000 nM and the EC50 [3] was < 10 nM.
In the case of `COc1c(/C=C/c2ccc(NS(C)(=O)=O)cc2)cc(-n2ccc(=O)[nH]c2=O)cc1S(C)(=O)=O` [IB-L1-1.49, (E)-N-(4-(5-(2,4-dioxo-3,4-dihydropyrimidin-1(2H)-yl)-2-methoxy-3-(methylsulfonyl)styryl)phenyl)methanesulfonamide], the EC50 [2] is reported as > 1000 nM and the EC50 [3] is reported as > 1000 nM.
For `COc1c(/C=C/c2ccc(NS(C)(=O)=O)cc2)cc(-n2ccc(=O)[nH]c2=O)cc1-c1ccoc1` [IB-L1-1.50, (E)-N-(4-(5-(2,4-dioxo-3,4-dihydropyrimidin-1(2H)-yl)-3-(furan-3-yl)-2-methoxystyryl)phenyl)methanesulfonamide], the EC50 [2] was 100 to 1000 nM and the EC50 [3] was 10 to 100 nM.
With `COc1c(I)cc(-n2ccc(=O)[nH]c2=O)cc1/C=C/c1ccc(NS(C)(=O)=O)cc1` [IB-L1-1.51, (E)-N-(4-(5-(2,4-dioxo-3,4-dihydropyrimidin-1(2H)-yl)-3-iodo-2-methoxystyryl)phenyl)methanesulfonamide] the EC50 [2] was > 1000 nM and the EC50 [3] was 10 to 100 nM.
In the case of `COc1c(Br)cc(-n2ccc(=O)[nH]c2=O)cc1/C=C/c1ccc(NS(C)(=O)=O)cc1` [IB-L1-1.52, (E)-N-(4-(3-bromo-5-(2,4-dioxo-3,4-dihydropyrimidin-1(2H)-yl)-2-methoxystyryl)phenyl)methanesulfonamide], the EC50 [2] is reported as > 1000 nM and the EC50 [3] is reported as 100 to 1000 nM.
In the case of `COC(=O)c1cc(NS(C)(=O)=O)ccc1CCc1cc(-n2ccc(=O)[nH]c2=O)cc(C(C)(C)C)c1OC` [IB-L5-2-1.1, methyl 2-(3-tert-butyl-5-(2,4-dioxo-3,4-dihydropyrimidin-1(2H)-yl)-2-methoxyphenethyl)-5-(methylsulfonamido)benzoate], the EC50 [2] is reported as 10 to 100 nM and the EC50 [3] is reported as < 10 nM.
With `COc1c(CCc2ccc(NS(C)(=O)=O)cc2)cc(-n2ccc(=O)[nH]c2=O)cc1C(C)(C)C` [IB-L5-2-1.2, N-(4-(3-tert-butyl-5-(2,4-dioxo-3,4-dihydropyrimidin-1(2H)-yl)-2-methoxyphenethyl)phenyl)methanesulfonamide] the EC50 [2] was 100 to 1000 nM and the EC50 [3] was 10 to 100 nM.
